Earlier results as cited in publication PMC12506672, “A phase I study of HEC73543, an oral FLT3 inhibitor: the effect of food on pharmacokinetics after oral dosing in healthy Chinese volunteers” (Frontiers in Pharmacology, 2025).

Columns and labels:
[1] = set-up: method as in Kim, 2017; conditions: standard or high-fat meal compared to fasting; ref Kim, 2017
[2] = set-up: method as in James et al., 2020; conditions: high-fat meal, healthy subjects; ref James et al., 2020
[3] = test system: FLT3-ITD–positive leukemia samples; set-up: method as in Cucchi et al., 2018; conditions: ex vivo, especially high allelic ratio (AR ≥ 0.5); ref Cucchi et al., 2018

Row | SMILES | delay of Tmax with food [1] | increase of AUC exposure with food [1] | lowering of Cmax with food [1] | GLSM ratio (fed/fasted %) for AUC0–t [2] | GLSM ratio (fed/fasted %) for AUC0–∞ [2] | GLSM ratio (fed/fasted %) for AUC72 [2] | GLSM ratio (fed/fasted %) for Cmax [2] | colony-forming capacity [3]
1 | CO[C@@H]1[C@H](N(C)C(=O)c2ccccc2)C[C@H]2O[C@]1(C)n1c3ccccc3c3c4c(c5c6ccccc6n2c5c31)C(=O)NC4 [midostaurin] | 2.5 to 3 h | 1.2- to 1.6 fold | 20%–27% |  |  |  |  | 
2 | CCc1nc(C(N)=O)c(Nc2ccc(N3CCC(N4CCN(C)CC4)CC3)c(OC)c2)nc1NC1CCOCC1 [gilteritinib] |  |  |  | 94.6% | 93.8% | 91.0% | 74.0% | markedly suppresses
